# US9630952B2, “Crystalline forms of afatinib di-maleate” (IVAX INTERNATIONAL GMBH, priority 2014, dated 2017)
# Legend:
# Format in all cases: physicochemical
# [1] = competitive slurry experiment comparing thermodynamic stabilities of forms A and Alpha
# From the text: As discussed above, crystalline form Alpha of Afatinib di-maleate has some advantages. […] Pharmaceutical molecules may display solid to solid phase transformations, transformations between polymorphs or between unsolvated and solvated form, which may be detected by competitive slurry experiments.
# [2] = polymorphic stability under mechanical stress; conditions: exposed to mechanical stress (e.g. grinding, tabletting pressure); compared to Form A
# From the text: As discussed above, crystalline form M of Afatinib di-maleate has advantages. […] As formulation processes often involve mechanical stress exerting technologies e.g. during grinding or under strong pressure in a tabletting machine, the polymorphic stability of API material is a desirable property.
# wettability = conditions: compared to form A
# From the text: As discussed above, crystalline form N of Afatinib di-maleate has some advantages. […] Wetting is the ability of a liquid (e.g. water) to maintain contact with a solid surface (e.g., API). It is a precursor to dissolution and so the wettability of a drug particle has a significant influence on the dissolution rates and the release characteristics in an oral pharmaceutical delivery. Wettability may also influence the interactions with other particles during formulation and manufacture. A polymorph with enhanced wettability ensures proper solubility measurement of the API per se and in formulation during dissolution experiments, i.e., better distribution of water and properly wetted sample.
smiles,measurement,setting,value
"CN(C)C/C=C/C(=O)Nc1cc2c(Nc3ccc(F)c(Cl)c3)ncnc2cc1O[C@H]1CCOC1 [Form Alpha, Afatinib di-maleate]",thermodynamic stability,"[1]; concluded from competitive slurry in ethanol at room temperature, compared to form A",enhanced thermodynamic stability of form Alpha over form A
same,solid form resulting from competitive slurry of forms A and Alpha,"[1]; in ethanol at room temperature, after about 67 hours",pure form Alpha
"CN(C)C/C=C/C(=O)Nc1cc2c(Nc3ccc(F)c(Cl)c3)ncnc2cc1O[C@H]1CCOC1 [Form M, Afatinib di-maleate]",polymorphic stability,[2],enhanced polymorphic stability compared to Form A
"CN(C)C/C=C/C(=O)Nc1cc2c(Nc3ccc(F)c(Cl)c3)ncnc2cc1O[C@H]1CCOC1 [Form N, Afatinib di-maleate]",wettability,wettability,better wettability over form A
